Measured values reported in US20110039721A1, “METHOD FOR PREDICTION ABOUT CARCINOGENICITY OF SUBSTANCE IN RODENT” (Chemicals Evaluation and Research Institute, priority 2007, published 2011).
Like-named read-outs stand apart in the source and are kept apart here.

Tests used:
[1] = test system: mRNA expressed from the genes (A) to (D) in rat liver; test: Behavior of genes (mRNA expression level, oligo-DNA microarray) in rat liver after 28-day oral administration; format: in vivo; conditions: for Behavior of gene caused by administration of chemical substance, Gene No. 4846 / Behavior of gene caused by administration of chemical substance, Gene No. 2026 / Behavior of gene caused by administration of chemical substance, Gene No. 4218 / Behavior of gene caused by administration of chemical substance, Gene No. 6182 / Behavior of gene caused by administration of chemical substance, Gene No. 5600: gene group (A); for Behavior of gene caused by administration of chemical substance, Gene No. 4846: Unigene No. Rn.144554; for Behavior of gene caused by administration of chemical substance, Gene No. 2026 / Behavior of gene caused by administration of chemical substance, Gene No. 4218: Unigene No. Rn.167075; for Behavior of gene caused by administration of chemical substance, Gene No. 6182: Unigene No. Rn.5834; for Behavior of gene caused by administration of chemical substance, Gene No. 5600: Unigene No. Rn.9836; for Behavior of gene caused by administration of chemical substance, Gene No. 1494 / Behavior of gene caused by administration of chemical substance, Gene No. 2045 / Behavior of gene caused by administration of chemical substance, Gene No. 2203: gene group (B); for Behavior of gene caused by administration of chemical substance, Gene No. 1494: Unigene No. Rn.1430; for Behavior of gene caused by administration of chemical substance, Gene No. 2045: Unigene No. Rn.19329; for Behavior of gene caused by administration of chemical substance, Gene No. 2203: Unigene No. Rn.21240; for Behavior of gene caused by administration of chemical substance, Gene No. 533 / Behavior of gene caused by administration of chemical substance, Gene No. 725 / Behavior of gene caused by administration of chemical substance, Gene No. 1163 / Behavior of gene caused by administration of chemical substance, Gene No. 4973 / Behavior of gene caused by administration of chemical substance, Gene No. 4095 / Behavior of gene caused by administration of chemical substance, Gene No. 1334 / Behavior of gene caused by administration of chemical substance, Gene No. 6620 / Behavior of gene caused by administration of chemical substance, Gene No. 6303 / Behavior of gene caused by administration of chemical substance, Gene No. 5878 / Behavior of gene caused by administration of chemical substance, Gene No. 1131 / Behavior of gene caused by administration of chemical substance, Gene No. 1562 / Behavior of gene caused by administration of chemical substance, Gene No. 1741 / Behavior of gene caused by administration of chemical substance, Gene No. 893 / Behavior of gene caused by administration of chemical substance, Gene No. 6026 / Behavior of gene caused by administration of chemical substance, Gene No. 154 / Behavior of gene caused by administration of chemical substance, Gene No. 1993 / Behavior of gene caused by administration of chemical substance, Gene No. 813 / Behavior of gene caused by administration of chemical substance, Gene No. 2494 / Behavior of gene caused by administration of chemical substance, Gene No. 2546 / Behavior of gene caused by administration of chemical substance, Gene No. 3776 / Behavior of gene caused by administration of chemical substance, Gene No. 3929 / Behavior of gene caused by administration of chemical substance, Gene No. 1119 / Behavior of gene caused by administration of chemical substance, Gene No. 6742 / Behavior of gene caused by administration of chemical substance, Gene No. 5634: gene group (C); for Behavior of gene caused by administration of chemical substance, Gene No. 533: Unigene No. Rn.106184; for Behavior of gene caused by administration of chemical substance, Gene No. 725: Unigene No. Rn.108075; for Behavior of gene caused by administration of chemical substance, Gene No. 1163: Unigene No. Rn.11766; for Behavior of gene caused by administration of chemical substance, Gene No. 4973: Unigene No. Rn.118529; for Behavior of gene caused by administration of chemical substance, Gene No. 4095: Unigene No. Rn.119024; for Behavior of gene caused by administration of chemical substance, Gene No. 1334 / Behavior of gene caused by administration of chemical substance, Gene No. 6620: Unigene No. Rn.120914; for Behavior of gene caused by administration of chemical substance, Gene No. 6303: Unigene No. Rn.123063; for Behavior of gene caused by administration of chemical substance, Gene No. 5878: Unigene No. Rn.143213; for Behavior of gene caused by administration of chemical substance, Gene No. 1131: Unigene No. Rn.144946; for Behavior of gene caused by administration of chemical substance, Gene No. 1562: Unigene No. Rn.14744; for Behavior of gene caused by administration of chemical substance, Gene No. 1741: Unigene No. Rn.1647; for Behavior of gene caused by administration of chemical substance, Gene No. 893: Unigene No. Rn.164817; for Behavior of gene caused by administration of chemical substance, Gene No. 6026: Unigene No. Rn.167685; for Behavior of gene caused by administration of chemical substance, Gene No. 154: Unigene No. Rn.185941; for Behavior of gene caused by administration of chemical substance, Gene No. 1993: Unigene No. Rn.18728; for Behavior of gene caused by administration of chemical substance, Gene No. 813: Unigene No. Rn.201760; for Behavior of gene caused by administration of chemical substance, Gene No. 2494: Unigene No. Rn.23969; for Behavior of gene caused by administration of chemical substance, Gene No. 2546: Unigene No. Rn.24561; for Behavior of gene caused by administration of chemical substance, Gene No. 3776: Unigene No. Rn.43232; for Behavior of gene caused by administration of chemical substance, Gene No. 3929: Unigene No. Rn.4620; for Behavior of gene caused by administration of chemical substance, Gene No. 1119: Unigene No. Rn.9757; for Behavior of gene caused by administration of chemical substance, Gene No. 6742: Unigene No. Rn.9779; for Behavior of gene caused by administration of chemical substance, Gene No. 5634: Unigene No. Rn.9862; for Behavior of gene caused by administration of chemical substance, Gene No. 5726: gene group (D), Unigene No. Rn.9939
Summary of the method: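 Male F344 SPF rats, 5 weeks old, four per group, dosed by oral gavage once daily for 28 days with test chemical or matched-volume solvent. Liver total RNA profiled on oligo-DNA microarray. Change ≥1.5-fold or ≤1/1.5 versus vehicle counted as significant if its direction matched that seen with other carcinogens.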

liver = conditions: cited from earlier work
rodent = conditions: cited from earlier work

ClC1=C(Cl)[C@]2(Cl)[C@@H]3[C@@H]4C[C@@H]([C@H]5O[C@@H]45)[C@@H]3[C@@]1(Cl)C2(Cl)Cl [TS017, Dieldrin]
Behavior of gene caused by administration of chemical substance, Gene No. 4846 [1]: −
Behavior of gene caused by administration of chemical substance, Gene No. 2026 [1]: −
Behavior of gene caused by administration of chemical substance, Gene No. 4218 [1]: −
Behavior of gene caused by administration of chemical substance, Gene No. 6182 [1]: +
Behavior of gene caused by administration of chemical substance, Gene No. 5600 [1]: −
Behavior of gene caused by administration of chemical substance, Gene No. 1494 [1]: +
Behavior of gene caused by administration of chemical substance, Gene No. 2045 [1]: +
Behavior of gene caused by administration of chemical substance, Gene No. 2203 [1]: +
Behavior of gene caused by administration of chemical substance, Gene No. 533 [1]: +
Behavior of gene caused by administration of chemical substance, Gene No. 725 [1]: −
Behavior of gene caused by administration of chemical substance, Gene No. 1163 [1]: −
Behavior of gene caused by administration of chemical substance, Gene No. 4973 [1]: −
Behavior of gene caused by administration of chemical substance, Gene No. 4095 [1]: −
Behavior of gene caused by administration of chemical substance, Gene No. 1334 [1]: −
Behavior of gene caused by administration of chemical substance, Gene No. 6620 [1]: −
Behavior of gene caused by administration of chemical substance, Gene No. 6303 [1]: −
Behavior of gene caused by administration of chemical substance, Gene No. 5878 [1]: −
Behavior of gene caused by administration of chemical substance, Gene No. 1131 [1]: −
Behavior of gene caused by administration of chemical substance, Gene No. 1562 [1]: −
Behavior of gene caused by administration of chemical substance, Gene No. 1741 [1]: −
Behavior of gene caused by administration of chemical substance, Gene No. 893 [1]: −
Behavior of gene caused by administration of chemical substance, Gene No. 6026 [1]: −
Behavior of gene caused by administration of chemical substance, Gene No. 154 [1]: −
Behavior of gene caused by administration of chemical substance, Gene No. 1993 [1]: −
Behavior of gene caused by administration of chemical substance, Gene No. 813 [1]: −
Behavior of gene caused by administration of chemical substance, Gene No. 2494 [1]: −
Behavior of gene caused by administration of chemical substance, Gene No. 2546 [1]: −
Behavior of gene caused by administration of chemical substance, Gene No. 3776 [1]: −
Behavior of gene caused by administration of chemical substance, Gene No. 3929 [1]: −
Behavior of gene caused by administration of chemical substance, Gene No. 1119 [1]: −
Behavior of gene caused by administration of chemical substance, Gene No. 6742 [1]: −
Behavior of gene caused by administration of chemical substance, Gene No. 5634 [1]: −
Behavior of gene caused by administration of chemical substance, Gene No. 5726 [1]: −
Liver carcinogenicity (liver; in vivo): Cr−
Carcinogenicity (rodent; in vivo): C+

CCCCC(CC)COC(=O)CCCCC(=O)OCC(CC)CCCC (stereo not shown) [TS018, Di(2-ethylhexyl)adipate]
Behavior of gene caused by administration of chemical substance, Gene No. 4846 ([1]; mRNA vs vehicle control group): −
Behavior of gene caused by administration of chemical substance, Gene No. 2026 ([1]; mRNA vs vehicle control group): −
Behavior of gene caused by administration of chemical substance, Gene No. 4218 ([1]; mRNA vs vehicle control group): −
Behavior of gene caused by administration of chemical substance, Gene No. 6182 ([1]; mRNA vs vehicle control group): +
Behavior of gene caused by administration of chemical substance, Gene No. 5600 ([1]; mRNA vs vehicle control group): −
Behavior of gene caused by administration of chemical substance, Gene No. 1494 ([1]; mRNA vs vehicle control group): +
Behavior of gene caused by administration of chemical substance, Gene No. 2045 ([1]; mRNA vs vehicle control group): +
Behavior of gene caused by administration of chemical substance, Gene No. 2203 ([1]; mRNA vs vehicle control group): +
Behavior of gene caused by administration of chemical substance, Gene No. 533 ([1]; mRNA vs vehicle control group): +
Behavior of gene caused by administration of chemical substance, Gene No. 725 ([1]; mRNA vs vehicle control group): −
Behavior of gene caused by administration of chemical substance, Gene No. 1163 ([1]; mRNA vs vehicle control group): −
Behavior of gene caused by administration of chemical substance, Gene No. 4973 ([1]; mRNA vs vehicle control group): +
Behavior of gene caused by administration of chemical substance, Gene No. 4095 ([1]; mRNA vs vehicle control group): +
Behavior of gene caused by administration of chemical substance, Gene No. 1334 ([1]; mRNA vs vehicle control group): −
Behavior of gene caused by administration of chemical substance, Gene No. 6620 ([1]; mRNA vs vehicle control group): −
Behavior of gene caused by administration of chemical substance, Gene No. 6303 ([1]; mRNA vs vehicle control group): −
Behavior of gene caused by administration of chemical substance, Gene No. 5878 ([1]; mRNA vs vehicle control group): −
Behavior of gene caused by administration of chemical substance, Gene No. 1131 ([1]; mRNA vs vehicle control group): −
Behavior of gene caused by administration of chemical substance, Gene No. 1562 ([1]; mRNA vs vehicle control group): −
Behavior of gene caused by administration of chemical substance, Gene No. 1741 ([1]; mRNA vs vehicle control group): −
Behavior of gene caused by administration of chemical substance, Gene No. 893 ([1]; mRNA vs vehicle control group): −
Behavior of gene caused by administration of chemical substance, Gene No. 6026 ([1]; mRNA vs vehicle control group): −
Behavior of gene caused by administration of chemical substance, Gene No. 154 ([1]; mRNA vs vehicle control group): −
Behavior of gene caused by administration of chemical substance, Gene No. 1993 ([1]; mRNA vs vehicle control group): −
Behavior of gene caused by administration of chemical substance, Gene No. 813 ([1]; mRNA vs vehicle control group): −
Behavior of gene caused by administration of chemical substance, Gene No. 2494 ([1]; mRNA vs vehicle control group): −
Behavior of gene caused by administration of chemical substance, Gene No. 2546 ([1]; mRNA vs vehicle control group): −
Behavior of gene caused by administration of chemical substance, Gene No. 3776 ([1]; mRNA vs vehicle control group): −
Behavior of gene caused by administration of chemical substance, Gene No. 3929 ([1]; mRNA vs vehicle control group): −
Behavior of gene caused by administration of chemical substance, Gene No. 1119 ([1]; mRNA vs vehicle control group): −
Behavior of gene caused by administration of chemical substance, Gene No. 6742 ([1]; mRNA vs vehicle control group): −
Behavior of gene caused by administration of chemical substance, Gene No. 5634 ([1]; mRNA vs vehicle control group): −
Behavior of gene caused by administration of chemical substance, Gene No. 5726 ([1]; mRNA vs vehicle control group): −
Liver carcinogenicity (liver; classification of the substance (Cr+/Cr−)): Cr−
Carcinogenicity (rodent; classification of the substance (C+/C−)): C+
